Data on 25 compounds can be found in patent US8846697B2, “Purine analogs” (The Regents of the University of California, priority 2006, dated 2014).

Entries after “also recorded” stand apart in the source; their conditions may differ.

The assay has as its system human PBMC. The assay can be described thus: Interferon α induction in human PBMC (Luminex, Beadlyte Human MultiCytokine kit). Type of assay: cell-based. Also on record: key to IFN-α (Interferon concentration): b: Below lower limit of detection. Conditions: for IFN-α (Interferon concentration) / interferon inducing activity (in words) / EC50: human PBMC; for IFN-α (Interferon concentration): all compounds tested at 1 μM, averages from four donors; for IFN-α (Interferon concentration) / EC50: 24 hr; for interferon inducing activity (in words): 1 μM; for EC50: 10 μM to 10 nM, composited from three donors, read-out: EC50 (concentration at which 50% of the maximal IFN concentration was achieved). The protocol:
Reaction of 8-bromo compound 5 with NaN3 followed by Raney-Ni catalyzed hydrogenation furnished compound 6 in good yield. Acylation of compound 6 with ethylchloroformate led to the ethylcarbamate, compound 27, which was converted to the ureido compound 28 by reaction with methanolic ammonia. All compounds were tested for their ability to induce the production of interferon α in human PBMC compared to compound 4 as a positive control. Human blood samples were obtained from the San Diego Blood Bank. Peripheral blood mononuclear cells (PBMC) were isolated by density-gradient centrifugation over Ficoll-Hypaque (Amersham Pharmacia). Cells were resuspended in RPMI 1640 medium, supplemented with 10% fetal bovine serum (FBS), L-glutamine, and penicillin/streptomycin (RP10; Invitrogen, Carlsbad, Calif.), plated at 10^6 cells/well in 96-well plates, and stimulated with compounds at 1 μM final concentration for 24 hr. at 37° C., 5% CO2. The IFN-α level in the supernatants was measured by Luminex (Austin, Tex.) using the Beadlyte Human MultiCytokine kit (Upstate, Charlottesville, Va.), according to the manufacturer's instructions. Results presented in Table 2 are averages of data composited from four different donors. […] Detailed analytical data for these compounds is as follows:
For this dose response study, cells were treated with the listed compounds at concentrations ranging from 10 μM to 10 nM for 24 hr. The data shown in Table 3 are composited from three different donors, and a non-linear regression curve fit analysis was performed using GraphPad Prism software version 4.0b (San Diego, Calif.) to determine the EC50.

As for `COCCOc1nc(N)c2nc(NCc3ccccc3)n(Cc3ccccc3)c2n1` [Compound 17], the “IFN-α (Interferon concentration)” value is “b”.
Still for that read-out and setting: the figure for `CCCCNc1nc2c(N)nc(OCCOC)nc2n1Cc1ccccc1` [Compound 10] is 0.73 pg/mL.
Regarding `CCN(CC)c1nc2c(N)nc(OCCOC)nc2n1Cc1ccccc1` [Compound 11], the “interferon inducing activity (in words)” value is “activity is lost” and the “IFN-α (Interferon concentration)” value was “b”.
With `COCCOc1nc(N)c2nc(NCCCN(CCO)CCO)n(Cc3ccccc3)c2n1` [Compound 23], the “IFN-α (Interferon concentration)” value is reported as “b”.
As to `COCCOc1nc(N)c2nc(N)n(Cc3ccccc3)c2n1` [Compound 6], the “interferon inducing activity (in words)” value is recorded as “completely removed all interferon inducing activity”, the EC50 is > 10 µM and the “IFN-α (Interferon concentration)” value came to 35.25 pg/mL.
As to `COCCOc1nc(N)c2nc(NCC3CCCO3)n(Cc3ccccc3)c2n1` (stereo not drawn) [Compound 16], the “IFN-α (Interferon concentration)” value is “b”.
With `COCCOc1nc(N)c2nc(NCCc3c[nH]c4ccccc34)n(Cc3ccccc3)c2n1` [Compound 26], the “interferon inducing activity (in words)” value was “not active” and the “IFN-α (Interferon concentration)” value was “b”.
In the case of `COCCOc1nc(N)c2nc(NCCCCO)n(Cc3ccccc3)c2n1` [Compound 15], the “interferon inducing activity (in words)” value was “devoid of activity” and the “IFN-α (Interferon concentration)” value is reported as “b”.
As to `COCCOc1nc(N)c2nc(NN)n(Cc3ccccc3)c2n1` [Compound 29], the “IFN-α (Interferon concentration)” value was found to be 0.21 pg/mL.
Turning to `COCCOc1nc(N)c2nc(N3CCOCC3)n(Cc3ccccc3)c2n1` [Compound 25], the “interferon inducing activity (in words)” value is listed as “not active” and the “IFN-α (Interferon concentration)” value is 0.41 pg/mL.
The matching figures for `COCCOc1nc(N)c2nc(NCCN3CCCCC3)n(Cc3ccccc3)c2n1` [Compound 20]: “not active” and “b”.
For `CNc1nc2c(N)nc(OCCOC)nc2n1Cc1ccccc1` [Compound 7], the “IFN-α (Interferon concentration)” value is “b”.
As for `COCCNc1nc2c(N)nc(OCCOC)nc2n1Cc1ccccc1` [Compound 21], the “IFN-α (Interferon concentration)” value is reported as “b”.
Take `COCCOc1nc(N)c2nc(NCCCO)n(Cc3ccccc3)c2n1` [Compound 14]: the “interferon inducing activity (in words)” value is “most active”, the EC50 was found to be 3.2 µM and the “IFN-α (Interferon concentration)” value worked out at 113.18 pg/mL. Moreover, the “interferon inducing activity (in words)” value (listed as hydroxypropyl) is given as “about equally active”.
For `CCNc1nc2c(N)nc(OCCOC)nc2n1Cc1ccccc1` [Compound 8], the “interferon inducing activity (in words)” value is recorded as “most active; also recorded: superior to the others”, the EC50 stood at 4.42 µM and the “IFN-α (Interferon concentration)” value was determined as 80.30 pg/mL.
For `CCCNc1nc2c(N)nc(OCCOC)nc2n1Cc1ccccc1` [Compound 9], the “IFN-α (Interferon concentration)” value amounted to 8.80 pg/mL.
As for `COCCOc1nc(N)c2nc(NCC3CCCCC3)n(Cc3ccccc3)c2n1` [Compound 24], the “IFN-α (Interferon concentration)” value was “b”.
In the case of `COCCOc1nc(N)c2[nH]c(=O)n(Cc3ccccc3)c2n1` [Compound 4, 9-benzyl-2-methoxyethoxy-8-oxoadenine, reference compound], the EC50 is 0.14 µM and the “IFN-α (Interferon concentration)” value was determined as 418.00 pg/mL.
As for `COCCOc1nc(N)c2nc(NCCO)n(Cc3ccccc3)c2n1` [Compound 12], the “interferon inducing activity (in words)” value was “most active; also recorded: activity was enhanced somewhat”, the EC50 came to 5.33 µM and the “IFN-α (Interferon concentration)” value is 99.21 pg/mL.
`CCOC(=O)Nc1nc2c(N)nc(OCCOC)nc2n1Cc1ccccc1` [Compound 27]: the “IFN-α (Interferon concentration)” value was found to be 1.03 pg/mL.
For `COCCOc1nc(N)c2nc(NCCN(CCO)CCO)n(Cc3ccccc3)c2n1` [Compound 22], the “IFN-α (Interferon concentration)” value was “b”.
For the compound `COCCOc1nc(N)c2nc(NCCN3CCOCC3)n(Cc3ccccc3)c2n1` [Compound 19], the “interferon inducing activity (in words)” value is reported as “most active; also recorded: highest activity”, the EC50 came out at 0.79 µM and the “IFN-α (Interferon concentration)” value is on record as 110.48 pg/mL. Besides, the “EC50 (in words)” value (interferon induction in human PBMC) was “submicromolar range”.
Turning to `COCCOc1nc(N)c2nc(NC(N)=O)n(Cc3ccccc3)c2n1` [Compound 28], the “IFN-α (Interferon concentration)” value is listed as “b”.
With `COCCOc1nc(N)c2nc(N(CCO)CCO)n(Cc3ccccc3)c2n1` [Compound 13], the “interferon inducing activity (in words)” value is listed as “abrogated activity” and the “IFN-α (Interferon concentration)” value is 0.82 pg/mL.
The corresponding values for `COCCOc1nc(N)c2nc(NCCc3ccccc3)n(Cc3ccccc3)c2n1` [Compound 18] are “not active” and 1.33 pg/mL.
